Source: ChEMBL document CHEMBL2074268, “Cloning of mouse prostaglandin transporter PGT cDNA: species-specific substrate affinities” (Am J Physiol, 1999)

Legend:
Assay type in all cases: functional, cell-based
[1] = target: Solute carrier organic anion transporter family member 2A1 (Mus musculus, UniProt Q9EPT5); test: (§1) TP_TRANSPORTER: inhibition of PGE2 uptake in PGT-expressing HeLa cells
[2] = target: Solute carrier organic anion transporter family member 2A1 (Rattus norvegicus, UniProt Q00910); test: as §1
[3] = target: Solute carrier organic anion transporter family member 2A1 (Homo sapiens, UniProt Q92959); test: as §1

Solute carrier organic anion transporter family member 2A1 (Mus musculus, UniProt Q9EPT5), sequence (Q9EPT5 whole entry): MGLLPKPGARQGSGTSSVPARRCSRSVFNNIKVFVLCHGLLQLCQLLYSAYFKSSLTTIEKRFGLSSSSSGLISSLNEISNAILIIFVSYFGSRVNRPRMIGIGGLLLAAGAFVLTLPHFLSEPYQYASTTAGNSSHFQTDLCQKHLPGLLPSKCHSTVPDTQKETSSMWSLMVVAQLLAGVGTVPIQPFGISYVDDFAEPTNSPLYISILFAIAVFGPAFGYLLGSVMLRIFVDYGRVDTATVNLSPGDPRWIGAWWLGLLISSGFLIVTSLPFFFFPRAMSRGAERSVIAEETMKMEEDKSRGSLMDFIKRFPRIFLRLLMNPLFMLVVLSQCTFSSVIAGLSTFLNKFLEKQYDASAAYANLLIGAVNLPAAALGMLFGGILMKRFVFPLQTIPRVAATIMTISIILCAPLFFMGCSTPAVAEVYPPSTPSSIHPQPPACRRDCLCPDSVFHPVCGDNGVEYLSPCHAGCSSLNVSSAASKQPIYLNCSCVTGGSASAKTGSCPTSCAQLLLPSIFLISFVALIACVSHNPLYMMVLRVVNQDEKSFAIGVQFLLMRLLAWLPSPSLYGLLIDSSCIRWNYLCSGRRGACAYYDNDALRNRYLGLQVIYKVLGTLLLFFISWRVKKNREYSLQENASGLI

Row | SMILES | Ki [1] | Ki [2] | Ki [3]
1 | CCCCC[C@H](O)/C=C/[C@H]1C(=O)C[C@H](O)[C@@H]1C/C=C\CCCC(=O)O [PROSTAGLANDIN D2] | 98 nM | 45 nM | 38 nM
2 | CCCCC[C@H](O)/C=C/[C@@H]1[C@@H](C/C=C\CCCC(=O)O)[C@@H](O)C[C@H]1O [DINOPROST] | 104 nM | 45 nM | 23 nM
